How the values were obtained:
[1] = Antiproliferative activity against HEK293 cells assessed as cell growth inhibition at 10 uM incubated for 48 hrs by MTT assay relative to control; assay type: toxicity, cell-based; conditions: human
[2] = biological target: CDK9/cyclin T1 (Homo sapiens, UniProt P50750); assay: Inhibition of CDK9/cyclin T1 (unknown origin) by ADP-Glo assay; assay type: protein-complex assay
[3] = tested on: MIA PaCa-2; assay: Antiproliferative activity against human MIA PaCa-2 cells assessed as cell growth inhibition incubated for 48 hrs by MTT assay; assay type: functional
[4] = tested on: HCT-116; assay: Antiproliferative activity against human HCT-116 cells assessed as cell growth inhibition at 10 uM incubated for 48 hrs by MTT assay relative to control; assay type: functional
[5] = biological target: Cyclin-dependent kinase 7/ cyclin H (Homo sapiens) (UniProt P51946+P50613); assay: Inhibition of CDK7/cyclin H (unknown origin) at 10 uM by ADP-Glo assay relative to control; assay type: protein-complex assay
[6] = biological target: CDK9/Cyclin K (Homo sapiens) (UniProt P50750+O75909); assay: Inhibition of CDK9/cyclin K (unknown origin) at 10 uM by ADP-Glo assay relative to control; assay type: protein-complex assay
[7] = Antiproliferative activity against HEK293 cells assessed as cell growth inhibition incubated for 48 hrs by MTT assay; assay type: toxicity, cell-based; conditions: human
[8] = biological target: CDK9/Cyclin K (Homo sapiens, UniProt P50750); assay: Inhibition of CDK9/cyclin K (unknown origin) by ADP-Glo assay; assay type: protein-complex assay
Sequence of CDK9/Cyclin K (P50750 whole entry): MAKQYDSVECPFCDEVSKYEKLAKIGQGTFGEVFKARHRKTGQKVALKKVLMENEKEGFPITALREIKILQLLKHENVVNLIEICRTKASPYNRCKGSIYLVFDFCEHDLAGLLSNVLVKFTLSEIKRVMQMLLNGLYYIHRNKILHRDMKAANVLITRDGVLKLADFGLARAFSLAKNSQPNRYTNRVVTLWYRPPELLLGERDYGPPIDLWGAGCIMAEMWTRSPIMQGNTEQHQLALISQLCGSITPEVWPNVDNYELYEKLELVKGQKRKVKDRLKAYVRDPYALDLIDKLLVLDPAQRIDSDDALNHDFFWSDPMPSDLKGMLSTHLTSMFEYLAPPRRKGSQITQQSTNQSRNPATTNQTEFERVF
Sequence of CDK9/Cyclin K (O75909 whole entry, further chain): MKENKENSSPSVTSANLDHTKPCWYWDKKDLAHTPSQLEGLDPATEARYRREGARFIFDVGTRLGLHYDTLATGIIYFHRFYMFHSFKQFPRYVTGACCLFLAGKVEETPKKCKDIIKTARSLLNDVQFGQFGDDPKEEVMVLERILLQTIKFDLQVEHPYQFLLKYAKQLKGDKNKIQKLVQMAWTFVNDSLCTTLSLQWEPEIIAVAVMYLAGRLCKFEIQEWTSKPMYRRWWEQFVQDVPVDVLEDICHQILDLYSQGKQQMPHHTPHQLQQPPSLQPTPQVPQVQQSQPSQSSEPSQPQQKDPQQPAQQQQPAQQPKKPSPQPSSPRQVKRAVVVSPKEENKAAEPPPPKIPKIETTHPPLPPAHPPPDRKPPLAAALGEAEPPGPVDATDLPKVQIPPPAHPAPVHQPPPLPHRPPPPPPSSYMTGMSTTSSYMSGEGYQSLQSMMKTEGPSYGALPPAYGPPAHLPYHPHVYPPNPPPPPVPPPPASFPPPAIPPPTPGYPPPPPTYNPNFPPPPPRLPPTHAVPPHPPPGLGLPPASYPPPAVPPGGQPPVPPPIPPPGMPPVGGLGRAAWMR

[9] = tested on: MIA PaCa-2; assay: Antiproliferative activity against human MIA PaCa-2 cells assessed as cell growth inhibition at 10 uM incubated for 48 hrs by MTT assay relative to control; assay type: functional
[10] = biological target: Cyclin-dependent kinase 7/ cyclin H (Homo sapiens, UniProt P50613); assay: Inhibition of CDK7/cyclin H (unknown origin) by ADP-Glo assay; assay type: protein-complex assay
Sequence of Cyclin-dependent kinase 7/ cyclin H (P51946 whole entry): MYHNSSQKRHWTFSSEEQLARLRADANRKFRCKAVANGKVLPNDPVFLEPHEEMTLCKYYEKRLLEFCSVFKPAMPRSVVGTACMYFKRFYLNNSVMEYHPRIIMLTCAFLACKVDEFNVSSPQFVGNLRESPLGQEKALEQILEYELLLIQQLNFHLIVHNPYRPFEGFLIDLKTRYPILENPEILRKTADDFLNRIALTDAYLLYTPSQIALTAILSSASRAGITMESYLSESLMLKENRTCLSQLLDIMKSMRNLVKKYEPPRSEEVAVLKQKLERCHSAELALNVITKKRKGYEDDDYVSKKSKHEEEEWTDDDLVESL
Sequence of Cyclin-dependent kinase 7/ cyclin H (P50613 whole entry): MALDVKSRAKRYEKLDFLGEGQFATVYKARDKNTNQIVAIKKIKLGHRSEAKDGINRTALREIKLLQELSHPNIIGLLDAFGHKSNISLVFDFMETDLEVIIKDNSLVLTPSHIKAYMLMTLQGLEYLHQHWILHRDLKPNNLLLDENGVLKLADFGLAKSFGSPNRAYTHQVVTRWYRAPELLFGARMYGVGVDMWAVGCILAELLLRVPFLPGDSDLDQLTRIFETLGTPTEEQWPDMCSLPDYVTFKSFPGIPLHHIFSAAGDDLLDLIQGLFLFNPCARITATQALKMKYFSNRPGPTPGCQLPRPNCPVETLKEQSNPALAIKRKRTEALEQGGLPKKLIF

[11] = tested on: HCT-116; assay: Antiproliferative activity against human HCT-116 cells assessed as cell growth inhibition incubated for 48 hrs by MTT assay; assay type: functional
[12] = tested on: MIA PaCa-2; assay: Induction of mitochondrial membrane potential loss in human MIA PaCa-2 cells incubated for 48 hrs by Rhodamine-123 dye based analysis; assay type: functional, cell-based
[13] = tested on: MIA PaCa-2; assay: Induction of apoptosis in human MIA PaCa-2 cells assessed as apoptotic body formation incubated for 48 hrs by DAPI staining based analysis; assay type: functional, cell-based
[14] = tested on: MIA PaCa-2; assay: Induction of apoptosis in human MIA PaCa-2 cells assessed as chromatin condensation incubated for 48 hrs by DAPI staining based analysis; assay type: functional, cell-based

Sequence of CDK9/cyclin T1 (O60563 whole entry): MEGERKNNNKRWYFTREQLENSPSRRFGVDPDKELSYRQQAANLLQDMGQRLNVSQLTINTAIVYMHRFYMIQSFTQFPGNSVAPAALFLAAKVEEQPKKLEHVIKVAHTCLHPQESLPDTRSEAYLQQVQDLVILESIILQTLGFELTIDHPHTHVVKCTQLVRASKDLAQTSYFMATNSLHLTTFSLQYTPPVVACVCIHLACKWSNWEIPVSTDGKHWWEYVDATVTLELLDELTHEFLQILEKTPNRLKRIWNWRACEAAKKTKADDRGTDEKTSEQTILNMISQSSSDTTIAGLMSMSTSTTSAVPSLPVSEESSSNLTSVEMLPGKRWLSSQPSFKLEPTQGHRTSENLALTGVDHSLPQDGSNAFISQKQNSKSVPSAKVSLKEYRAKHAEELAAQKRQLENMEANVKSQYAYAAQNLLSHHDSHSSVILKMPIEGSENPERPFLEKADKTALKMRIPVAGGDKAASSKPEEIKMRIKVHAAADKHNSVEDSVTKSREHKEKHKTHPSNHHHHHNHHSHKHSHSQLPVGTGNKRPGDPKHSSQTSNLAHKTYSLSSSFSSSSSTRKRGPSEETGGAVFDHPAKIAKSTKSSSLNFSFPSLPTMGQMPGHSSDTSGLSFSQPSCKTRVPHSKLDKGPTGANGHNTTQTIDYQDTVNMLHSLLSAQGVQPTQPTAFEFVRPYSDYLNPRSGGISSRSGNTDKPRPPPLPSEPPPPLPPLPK
Sequence of CDK9/cyclin T1 (P50750 whole entry): as the sequence (P50750 whole entry) above

IC50 [2] [µM]	GI50 [3] [µM]	inhibition [5] [%]	inhibition [6] [%]	IC50 [8] [µM]	IC50 [10] [µM]	GI50 [11] [µM]	Structure (SMILES)	inhibition at 48 h, 10 µM [1] [%]	inhibition at 10 µM [4] [%]	GI50 at 48 h [7] [µM]	inhibition at 10 µM [9] [%]	Activity [12]	Activity [13]	Activity [14]
3.85	> 10	18.2	35.8	> 10	> 10	> 10	C[N+]1([O-])CC[C@H](c2c(O)cc(O)c3c(=O)cc(/C=C/c4ccc(Cl)cc4)oc23)[C@H](O)C1 (stereo partly drawn)	9.1	39.3	46.3	44.2			
		56.7	28.4				COc1cc(O)c2c(=O)cc(/C=C/c3ccc(F)c(Cl)c3)oc2c1[C@H]1CC[N+](C)([O-])C[C@H]1O (stereo partly drawn)	6.9	33.7		27.8			
0.399	9.7	47.5	65.8	3.44	6.44	5.44	C[N+]1([O-])CC[C@H](c2c(O)cc(O)c3c(=O)cc(/C=C/c4c(Cl)cccc4Cl)oc23)[C@H](O)C1 (stereo partly drawn)	24.1	72.3	> 100	53.6			
							CC(=O)O[C@H]1C(=O)[C@@]2(C)[C@H]([C@H](OC(=O)c3ccccc3)[C@]3(O)C[C@H](OC(=O)[C@H](O)[C@@H](NC(=O)c4ccccc4)c4ccccc4)C(C)=C1C3(C)C)[C@]1(OC(C)=O)CO[C@@H]1C[C@@H]2O					Dose-Dependent Effect	Dose-Dependent Effect	Dose-Dependent Effect
		89.6	64.8				C[N+]1([O-])CC[C@H](c2c(O)cc(O)c3c(=O)cc(/C=C/c4ccccc4I)oc23)[C@H](O)C1 (stereo partly drawn)	13.4	38.3		38.1			
3.71	> 10	19.4	37.3	> 10	> 10	> 10	C[N+]1([O-])CC[C@H](c2c(O)cc(O)c3c(=O)cc(/C=C/c4cccc(Cl)c4)oc23)[C@H](O)C1 (stereo partly drawn)	9.2	27.4	> 100	36.3			
1.99	> 10	41.7	44.2	> 10	> 10	> 10	C[N+]1([O-])CC[C@H](c2c(O)cc(O)c3c(=O)cc(/C=C/c4ccccc4)oc23)[C@H](O)C1 (stereo partly drawn)	8.2	20.5	> 100	21.5			
7.65	> 10	12.8	37.9	> 10	> 10	> 10	Cc1cc(=O)c2c(O)cc(O)c([C@H]3CC[N+](C)([O-])C[C@H]3O)c2o1 (stereo partly drawn)	14.3	34	> 100	18.8			
1.43	7.05	48.5			5.14	4.56	C[N+]1([O-])CC[C@H](c2c(O)cc(O)c3c(=O)cc(/C=C/c4c(F)cccc4Cl)oc23)[C@H](O)C1 (stereo partly drawn)	19.3	61.7	> 100	56.1			
		65.4	66.2				C[N+]1([O-])CC[C@H](c2c(O)cc(O)c3c(=O)cc(/C=C/c4ccc(Cl)cc4Br)oc23)[C@H](O)C1 (stereo partly drawn)	21.4	57.1		58.4			
		51.4	41.8				COc1cc(O)c2c(=O)cc(/C=C/c3c(F)ccc(F)c3Cl)oc2c1[C@H]1CC[N+](C)([O-])C[C@H]1O (stereo partly drawn)	20	57.7		36.4			
		49.6	43.2				C[N+]1([O-])CC[C@H](c2c(O)cc(O)c3c(=O)cc(/C=C/c4ccc(Cl)cc4Cl)oc23)[C@H](O)C1 (stereo partly drawn)	18.2	54		41.2			
		50.3	17				COc1cc(O)c2c(=O)cc(/C=C/c3c(F)ccc(Cl)c3F)oc2c1[C@H]1CC[N+](C)([O-])C[C@H]1OC (stereo partly drawn)	15.5	38.1		39			
0.676	5.58	15.9	58.9	8.47	> 10	> 10	C[N+]1([O-])CC[C@H](c2c(O)cc(O)c3c(=O)cc(/C=C/c4ccccc4F)oc23)[C@H](O)C1 (stereo partly drawn)	18.8	18.2	> 100	31.8			
0.45	8.03	37.4			> 10	> 10	CCOc1cc(O)c2c(=O)cc(/C=C/c3c(F)cccc3Cl)oc2c1[C@H]1CC[N+](C)([O-])C[C@H]1O (stereo partly drawn)	22.8	34.7	> 100	52.8			
0.003	1.94	81.6	83.6	0.32		9.32	CN1CC[C@H](c2c(O)cc(O)c3c(=O)cc(/C=C/c4c(Cl)cccc4Cl)oc23)[C@H](O)C1	20.6	49.5	> 100	82.5			
0.231	5.35	49.4	60.2	2.41	1.62	9.32	C[N+]1([O-])CC[C@H](c2c(O)cc(O)c3c(=O)cc(/C=C/c4ccccc4Br)oc23)[C@H](O)C1 (stereo partly drawn)	17.2	36.3	95.2	70.3			
		47.5	59.6				COc1cc(O)c2c(=O)cc(/C=C/c3cccc(Cl)c3F)oc2c1[C@H]1CC[N+](C)([O-])C[C@H]1O (stereo partly drawn)	17.2	62.1		52.7			
		25.6	28				C[N+]1([O-])CC[C@H](c2c(O)cc(O)c3c(=O)cc(/C=C/c4cc(Cl)cc(Cl)c4)oc23)[C@H](O)C1 (stereo partly drawn)	14.8	5.7		11.3			
